The values below are quoted from earlier work in patent publication US20010031279A1, “Controlled delivery of antidepressants” (priority 1998, published 2001).

Each structure is given as a SMILES string. Where a name gives a salt, the structure may show the parent alone.

In the case of `CCc1nn(CCCN2CCN(c3cccc(Cl)c3)CC2)c(=O)n1CCOc1ccccc1` [nefazodone hydrochloride, 2-[3-[4-(3-chlorophenyl)-piperazinyl]propyl]-5-ethyl-4-(2-phenoxyethyl)-2H-1,2,4-triazol-3(4H)-one hydrochloride], under “conventional immediate release formulations”, the “time of peak plasma concentrations after dosing” value is on record as “about one”. In addition, the half-life (commonly the time in which the quantity being followed falls by half) (in vivo) was 2 to 4 h.
